These results are taken from US20260098072A1, “METHODS OF STIMULATING APPETITE AND/OR INCREASING BODY WEIGHT USING NON-NATURALLY OCCURRING MELANOCORTIN RECEPTOR ANTAGONIST ANALOGS” (Endevica Bio, Inc., priority 2022, published 2026).

“Also recorded” adds a separate entry of the source. Positions of bridges follow the written chain, without caps; N, C: chain ends. Non-standard residues stand in square brackets, D forms with d. Residues, ends and D or L forms follow the SMILES beside them. d2Nal = N[C@H](Cc1ccc2ccccc2c1)C(=O)O; Nle = CCCC[C@H](N)C(=O)O

In series [1] the test system is urethane-anesthetized rats. Description: Cardiovascular effects (MAP, heart rate, ECG) in urethane-anesthetized rats.
Description: These studies were performed in urethane-anesthetized rats, since anesthesia is required for six-lead ECG monitoring. […] Initial selection of doses was guided by FDA exploratory IND studies with a recommendation for at least a 100-fold excess of the human dose.
The next series concerns LPS model of cachexia. Kind of series: LPS-induced cachexia assay in rats. It is filed as in vivo, rat. As for the experimental part:
The LPS model uses rats were maintained on a 12 h light/dark schedule with ad libitum access to food and water. Animals were handled daily for a minimum of three consecutive days to decrease non-specific handling stress. On the day of the experiment, individually housed animals received intraperitoneal injections of LPS dissolved in 0.5% low-endotoxin BSA, 0.9% saline or 0.5% BSA in 0.9% saline alone, and were returned to their home cage. The drug or control was administered (ICV, IP, or PO, depending on the type of study) 1-hour after LPS injection.
In the experiments performed in accordance with the present technology, a series of melanocortin receptor antagonist peptides were examined in a bacterial endotoxin inducing cachexia assay. For this assay, a rat is challenged with a single peripheral injection of lipopolysaccharide (LPS). LPS is a heat-stable lipo-polysaccharide, the major component of the outer membrane (capsule) of gram negative bacteria. In non-capsulated strains, it appears as a cell surface protein. LPS produces a strong immune response, including secretion of the proinflammatory cytokines Tumor Necrosis Factor α (TNFα) and interleukin-1 (IL-1). Proinflammatory cytokines are known factors that induce cachexia.
Rats are maintained on a 12-hour light/dark cycle. Animals are handled daily for a minimum of 5 consecutive days to acclimate them to the handling required for the experiment. […] On the day of the experiment, individually housed animals receive intraperitoneal (IP) injections of LPS dissolved in 0.5% low-endotoxin BSA, 0.9% saline or 0.5% BSA in 0.9% saline alone, and returned in their home cage. Melanocortin receptor antagonist peptides were administered (IP or by gavage, depending on the type of study) one hour after the LPS injection. The extent of cachexia is measured by the reduction in food intake, measured every two hours. The cachexia typically lasts only a single day. However, rats lose up to 5% of their body weight during a 12-hour light cycle, making up this loss plus food needed for normal growth during the 12-hour dark cycle. Thus, failure to eat appropriately during a single dark cycle is determinable from the animal's weight and any changes thereof.
A series of melanocortin receptor antagonist peptides were examined in a bacterial toxin inducing cachexia assay. In this assay, a rat was challenged with a single peripheral injection of lipopolysaccharide (LPS), a bacterial toxin that rapidly induces acute cachexia. The extent of cachexia was measured as a reduction in food intake, measured every two hours. The cachexia typically lasts only a single day.

The test system of a further series is Lewis sarcoma rat model. Kind of series: Lewis sarcoma rat model of cancer cachexia. It counts as in vivo. As for the experimental part:
This sarcoma is an aggressive form of cancer that produces significant cachexia. Popp et al., Cancer 49 (6): 1212-1220 (1982). In the protocol, “treatment” began 8-days after tumor implantation, with a significant decrease in food intake from baseline. Body composition was determined by NMR prior to tumor implantation, and on the final day of the experiment after tumor resection, by ECHO MRI (NMR). Tumor implantation produces cachexia on or about the sixth day. The non-naturally occurring melanocortin analog or saline was administered after day 8 and continued through day 12.

For series [2], the target named is human melanocortin 3 receptor (MC3R) (human) (UniProt P41968). Description: cell-based or functional assay.
Sequence of human melanocortin 3 receptor (MC3R) (human) (P41968 whole entry): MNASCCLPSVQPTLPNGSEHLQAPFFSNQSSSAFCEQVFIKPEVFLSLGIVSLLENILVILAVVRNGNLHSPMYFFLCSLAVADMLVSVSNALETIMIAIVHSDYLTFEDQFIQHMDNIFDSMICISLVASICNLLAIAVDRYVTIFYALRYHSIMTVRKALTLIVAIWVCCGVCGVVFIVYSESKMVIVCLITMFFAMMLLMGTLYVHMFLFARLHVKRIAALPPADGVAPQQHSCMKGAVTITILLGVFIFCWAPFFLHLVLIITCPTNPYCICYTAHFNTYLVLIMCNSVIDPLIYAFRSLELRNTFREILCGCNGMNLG
The target in series [3] is human melanocortin 4 receptor (MC4R) (human) (UniProt P32245). Kind of series: cell-based or functional assay.
Sequence of human melanocortin 4 receptor (MC4R) (human) (P32245 whole entry): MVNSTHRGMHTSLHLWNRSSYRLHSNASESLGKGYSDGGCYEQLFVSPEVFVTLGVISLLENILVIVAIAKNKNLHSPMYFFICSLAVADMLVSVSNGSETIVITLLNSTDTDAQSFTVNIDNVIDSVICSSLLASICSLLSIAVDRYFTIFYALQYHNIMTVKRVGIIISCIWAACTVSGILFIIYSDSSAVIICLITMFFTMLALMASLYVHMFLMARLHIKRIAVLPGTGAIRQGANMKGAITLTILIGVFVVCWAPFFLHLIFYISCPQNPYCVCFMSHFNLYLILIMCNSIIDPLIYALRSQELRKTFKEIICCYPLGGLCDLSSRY

As for `CCCC[C@H](NC(C)=O)C(=O)N[C@H]1CC(=O)NCCCC[C@@H](C(=O)O)NC(=O)[C@H](Cc2c[nH]c3ccccc23)NC(=O)[C@H](CCCN=C(N)N)NC(=O)[C@@H](Cc2ccccc2)NC(=O)[C@H](Cc2cnc[nH]2)NC1=O` [Bremelanotide (PT-141), Ac-Nle-c[Asp-His-DPhe-Arg-Trp-Lys]-COOH], in series [1] (250 nmol), the “Duration” value turned out to be 140 ± 53 min, the “Peak Heart Rate Response (BPM)” value was 44 ± 6 BPM and the “Peak MAP Response (Δ mm Hg)” value amounted to 32 ± 6 mm Hg. Also, in series [1] (900 nmol/kg IV, baseline MAP 80 mmHg), the “MAP after lethal dose” value is recorded as 140 mmHg. Besides, in series [1] (IV), the lethal dose is 900 nmol/kg. For the same compound, the “ECG tracing (lead 2)” value in series [1] (IV 600 nmol/kg) was “inverted P-wave”.

In the case of `CCCC[C@H](NC(=O)[C@H](Cc1ccc(O)cc1)NC(=O)[C@H](CO)NC(C)=O)C(=O)N[C@@H](CCC(=O)O)C(=O)N[C@@H](Cc1c[nH]cn1)C(=O)N[C@H](Cc1ccccc1)C(=O)N[C@@H](CCCNC(=N)N)C(=O)N[C@@H](Cc1c[nH]c2ccccc12)C(=O)NCC(=O)N[C@@H](CCCCN)C(=O)N1CCC[C@H]1C(=O)N[C@H](C(N)=O)C(C)C` [MT-I, Ac-Ser-Tyr-Nle-Glu-His-DPhe-Arg-Trp-Gly-Lys-Pro-Val-NH2] (Ac-SY[Nle]EH[dF]RWGKPV-NH2), in series [1] (250 nmol), the “Duration” value is listed as 0 min, the “Peak Heart Rate Response (BPM)” value is 0/0 BPM and the “Peak MAP Response (Δ mm Hg)” value is reported as 0/0 mm Hg.

For the compound `CCCC[C@H](NC(C)=O)C(=O)N[C@H]1CC(=O)NCCCC[C@@H](C(=O)N[C@@H](C(=O)N2CCC[C@@H]2C(=O)N[C@@H](C(=O)O)[C@H](C)O)[C@H](C)O)NC(=O)[C@H](Cc2c[nH]c3ccccc23)NC(=O)[C@H](CCCNC(=N)N)NC(=O)[C@@H](Cc2ccc3ccccc3c2)NC(=O)[C@@H]2CCCN2C1=O` [TCMCB01, Ac-Nle-c[Asp-Pro-DNal(2′)-Arg-Trp-Lys]-DThr-DPro-DThr] (Ac-[Nle]DP[d2Nal]RWK[dT][dP][dT]-OH; lactam 2-7), the “anti-cachectic activity after ICV administration” value in the series on LPS model of cachexia (ICV) is listed as “only produced an anti-cachexia effect when given by IVt administration”. The “peripheral (IP) anti-cachexia activity / blood-brain barrier transport” value in the series with LPS model of cachexia (peripheral administration) was “did not have peripheral activity; also recorded: no blood-brain barrier transport”. Moreover, in series [1] (600 nmol), the “Duration” value is recorded as 0 min, the “Peak Heart Rate Response (BPM)” value is 0/0 BPM and the “Peak MAP Response (Δ mm Hg)” value is on record as 0/0 mm Hg. Moreover, in series [1] (rat, in vivo), the “cardiovascular activity / side effects” value was “little cardiovascular activity”. In the series with Lewis sarcoma rat model (2 nmol once per day), the “food intake (reversal of cachexia-anorexia)” value is given as “equivalent to AGRP; also recorded: reversed the cachexia-anorexia of the tumor burden”; the “potency compared with AGRP and SHU9119” value was “as potent as the natural melanocortin system inhibitor Agouti Related Protein (AGRP), and significantly more potent than SHU9119”. Moreover, the “body weight after tumor implantation” value in the series on Lewis sarcoma rat model (daily body weight) was “significantly greater than saline controls”. Besides, the “lean body mass (NMR after tumor excision)” value in the series on Lewis sarcoma rat model (p=0.05) is “increased lean body mass”. Also, the “anti-cachectic effect relative to AGRP” value in the series with Lewis sarcoma rat model (related study (not shown)) came out at 20 % greater than AGRP.

On to `O=C(N[C@H](Cc1ccc(Cl)cc1)C(=O)N1CCC(Cn2cncn2)(C2CCCCC2)CC1)[C@H]1Cc2ccccc2CN1` [THIQ, N-[(3R)-1,2,3,4-tetrahydroisoquinolinium-3-ylcarbonyl]-(1R)-1-(4-chlorobenzyl)-2-[4-cyclohexyl-4-(1H-1,2,4-triazol-1-ylmethyl)piperidin-1-yl]-2-oxoethylamine], for which, in series [1] (300 nmol), the “Duration” value is given as 19 ± 4 min, the “Peak Heart Rate Response (BPM)” value is 81 ± 09 BPM and the “Peak MAP Response (Δ mm Hg)” value was 22 ± 11 mm Hg.

For “Ac-Nle-c[Asp-Pro-dNal(2′)-Arg-Trp-Lys]-dVal-dPro-NH2 (Ac-[Nle]DP[d2Nal]RWK[dV][dP]-NH2; lactam 2-7) [TCMCB07]”, the gastrocnemius mass entry in the series with Lewis sarcoma rat model (low and high dose) is “preservation of gastrocnemius mass”.

In the case of HS024 (TFA) (peptide), the IC50 (cAMP by HTRF, antagonist dose-response) in series [2] came to 867 nM; in series [3], 153 nM. For the same compound, the values for the Max Activation % in series [2] and in series [3] were 102% and 104%, respectively.
